Results on eight compounds are retold here after patent US20260021193A1, “IMMUNOCONJUGATES AND METHODS” (Immunome, Inc., priority 2022, published 2026).

Structures can show the parent of a compound that is named as a salt. Where only a bound is given, the exact number is not on record here.

One may read the Papp as a coefficient for how fast a substance crosses the barrier. A word on the IC50: it is the concentration that inhibits the measured activity by half. Broadly, the CLint scaled is a measure of how fast metabolising enzymes remove a compound, apart from limits set by blood flow. As a reminder, the half-life is the time needed for the level to fall by half in the phase considered.

Data set [1] is described as follows: PAMPA (Parallel Artificial Membrane Permeability Assay). On the set-up: dose or concentration left out as unconfirmed. The data set is classed as physicochemical. From the text:
PAMPA is a method which determines the permeability of substances from a donor compartment, through a lipid-infused artificial membrane into an acceptor compartment. See Ottaviani, G.; Martel, S.; Carrupt, P-A. “Parallel Artificial Membrane Permeability Assay: A New Membrane for the Fast Prediction of Passive Human Skin Permeability”, Journal of Medicinal Chemistry, 2006, 49 (13), 3948-3954). A multi-well microtitre plate is used for the donor and a membrane/acceptor compartment is placed on top; the whole assembly is commonly referred to as a “sandwich”. At the beginning of the test, the drug is added to the donor compartment, and the acceptor compartment is drug-free. After an incubation period which may include stirring, the sandwich is separated, and the amount of drug is measured in each compartment. Mass balance allows calculation of drug that remains in the membrane.
The PAMPA was performed by Pion Inc using the GIT-0 lipid and 5 mM donor solution in pH 5.0 and pH 7.4 PRISMA buffer (containing 0.05% DMSO). The higher PAMPA data has been associated with better bystander killing. (Ogitani Y.; Hagihara K.; Oitate, M.; Naito, H.; Agatsuma T. “Bystander killing effect of DS-8201a, a novel anti-human epidermal growth factor receptor 2 antibody-drug conjugate, in tumors with human epidermal growth factor receptor 2 heterogeneity” Cancer Science, 2016, 107 (7), 1039-1046).

The subject of a further data set is Jeko-1. In words: CTG assay of payloads, Jeko-1 cells. The format is cell-based, human. Conditions: 72 h, CellTiter-Glo. From the text: (§1) The CTG assay is a method of determining the number of viable cells in culture based on quantitation of the ATP present, an indicator of metabolically active cells. The cell assay requires the addition of a single reagent, Cell Titer Glo, in which cells are lysed and generation of a luminescent signal is produced. The luminescent signal is proportional to the amount of ATP present. The amount of ATP is directly proportional to the number of cells present in culture. For this assay, cells were ensured to be in log-phase for either Jeko-1 or MDA-MB-468. Cells were transferred to 96 wells and treated with compounds in three-fold serial dilution starting from […] (10 points dilution), for 72 h. Cell viability was analyzed with CellTiter-Glo® Luminescent Cell Viability Assay (Promega) following manufactures' instruction. Percentage of viable cells in each compound concentration was determined by normalizing with the luminescence of vehicle control and plotted into percentage of viability versus dose response curve by nonlinear fit in GraphPad Prism software.
In general terms: ATP-based viability assays read luminescence as a measure of living cells.

A further data set concerns MDA-MB-468. In words: CTG assay of payloads, MDA-MB-468 cells. As to conditions: Table 1, 72 h, CellTiter-Glo. The data set is classed as cell-based, human.
Excerpt: as §1

Data set [2] can be described thus: Human hepatocyte clearance (HHEP CL). On the set-up: CLint scaled / half-life: dose or concentration left out as unconfirmed. The format is in vitro ADME. Conditions: for CLint scaled / half-life: both sexes, human, hepatocytes. The method, then:
Suspensions of human hepatocytes (from 10 mixed gender human donors, final concentration 0.5×10^6 cell/mL) in Williams' E medium were incubated for 90 min with a test compound (0.90% acetonitrile and 0.10% DMSO, final concentration […]) and positive controls (7-Ethoxycoumarin, 7-Hydroxycoumarin, 0.90% acetonitrile and 0.10% DMSO, final concentration […]), with constant shaking at about 600 rpm at 37° C. in an incubator at 5% CO2 and 95% humidity. The total volume of incubation was 200 μl. A sample ([…]) was taken out at T0, 15, 30, 60 and 90 min, which was added intermediately to the ice-cold stop solution (acetonitrile with 200 ng/mL of to butamide and labetalol as internal standard) (125 μl), and vortexed at 500 rpm for 10 min, centrifuged at 3220×g for 20 min at 4° C. Analytical plates were sealed and stored at 4° C. until LCMS analysis. Viability of hepatocytes at pre-incubation was determined to be 84.5%.
(§2) Human liver microsome clearance assay assess metabolism by the cytochrome P450 system (phase I enzymes). These enzymes oxidize substrates by incorporating oxygen atoms into hydrocarbons, thus causing the introduction of hydroxyl groups, or N- O- and S-dealkylation of substrates and forming more polar products easier to be cleared. Human hepatocyte clearance assay measures more broadly the overall cellular metabolism of the test compound (phase I and phase II enzyme pathways). Phase II enzymes catalyze the conjugation reaction of xenobiotic metabolites and charged species, such as glutathione, sulfate, glycine, or glucuronic acid to form even more polar compounds for easier clearance.

Data set [3] is described as follows: Human liver microsome clearance (HLM CL). The format is in vitro ADME. On the set-up: CLint scaled / half-life: dose or concentration left out as unconfirmed. Conditions: for CLint scaled / half-life: human, microsomes. On the procedure:
Working solution was prepared by adding 5 μL of compound and control stock solution (10 mM in dimethyl sulfoxide, DMSO) to 495 μL of acetonitrile (ACN) (intermediate solution concentration: 100 μM, 99% CAN and 1% DMSO. The appropriate concentrations of microsome working solutions were prepared in 100 mM potassium phosphate buffer. After reaction plates containing mixtures of compound and microsomes were pre-incubated at 37° C. for 10 min, […] of 2 mM of NADPH and 2 mM of MgCl2 solution was added to start the reaction. The final concentrations of incubation medium were as follows: microsome—0.5 mg protein/mL, test compound/control […], NADPH—1 mM, MgCl2—1 mM, acetonitrile 0.99%, DMSO 0.01%. Incubations were performed at 37° C. for 60 min. Samples were taken out at T0, T5, T15, T30, T45 and T60, which was added intermediately to the ice-cold stop solution (acetonitrile with 200 ng/mL of to butamide and labetalol as internal standard) (125 μl), shaken for 10 min, centrifuged at 4000 rpm for 20 min at 4° C. Analytical plates were analyzed by LCMS.
as §2
On the technique in general: Microsomes from liver hold many membrane-bound enzymes, among them those of drug oxidation.

Consider `CC[C@@]1(O)C(=O)OCc2c1cc1n(c2=O)Cc2c-1nc1cc(F)c(C)c3c1c2[C@](C)(N(C)CCO)CC3` (single isomer, unassigned) [Compound 7-45, hydrochloride], for which the Papp worked out at 56.6 ×10⁻⁶ cm/s in data set [1] (pH 5) and 7.5 ×10⁻⁶ cm/s in data set [1] (pH 7.4). The IC50 in the data set with Jeko-1 (Homo sapiens, JeKo-1, Table 1) is 33.5 nM; with MDA-MB-468 (Homo sapiens, MDA-MB-468), 258 nM. The values for the CLint scaled in data set [2] and in data set [3] were 92.2 mL/min/kg and 137 mL/min/kg, respectively. In addition, the half-life in data set [2] turned out to be 42 min; in data set [3], 9 min.
For `CC[C@@]1(O)C(=O)OCc2c1cc1n(c2=O)Cc2c-1nc1cc(F)c(C)c3c1c2[C@@](C)(CO)CC3` (single isomer, unassigned) [Compound 3-28], the Papp in data set [1] (pH 5) stood at 64 ×10⁻⁶ cm/s; in data set [1] (pH 7.4) it was 8.4 ×10⁻⁶ cm/s. Besides, the IC50 amounted to 1.3 nM with Jeko-1 (Homo sapiens, JeKo-1, Table 1) and 9.9 nM in the data set with MDA-MB-468 (Homo sapiens, MDA-MB-468). Besides, the CLint scaled came out at 62.9 mL/min/kg in data set [2] and 53.8 mL/min/kg in data set [3]. For the same compound, the half-life in data set [2] amounted to 61 min; in data set [3] it was 23 min.
Take `CC[C@@]1(O)C(=O)OCc2c1cc1n(c2=O)Cc2c-1nc1cc(F)c(C)c3c1c2[C@](C)(N1CC[C@H](O)C1)CC3` (single isomer, unassigned) [Compound 5-41]: the Papp in data set [1] (pH 5) is 53.5 ×10⁻⁶ cm/s; in data set [1] (pH 7.4), 6.6 ×10⁻⁶ cm/s. Also, the IC50 worked out at 11.6 nM in the data set on Jeko-1 (Homo sapiens, JeKo-1, Table 1) and 92.2 nM in the data set with MDA-MB-468 (Homo sapiens, MDA-MB-468). Also, the results for the CLint scaled in data set [2] and in data set [3] were 49.8 mL/min/kg and 92.5 mL/min/kg, respectively. Moreover, the half-life in data set [2] amounted to 77 min; in data set [3], 13.5 min.
Turning to `CC[C@@]1(O)C(=O)OCc2c1cc1n(c2=O)Cc2c-1nc1cc(F)c(C)c3c1c2[C@](C)(CO)CC3` (single isomer, unassigned) [Compound 3-27], the figures for the Papp in data set [1] (pH 5) and in data set [1] (pH 7.4) were 62.2 ×10⁻⁶ cm/s and 8.5 ×10⁻⁶ cm/s, respectively. The IC50 is 2.1 nM in the data set on Jeko-1 (Homo sapiens, JeKo-1, Table 1) and 18.6 nM in the data set with MDA-MB-468 (Homo sapiens, MDA-MB-468). The CLint scaled in data set [2] came to 62.4 mL/min/kg; in data set [3], 128 mL/min/kg. The values for the half-life in data set [2] and in data set [3] were 62 min and 9.7 min, respectively.
On to `CC[C@@]1(O)C(=O)OCc2c1cc1n(c2=O)Cc2c-1nc1cc(F)c(C)c3c1c2[C@](C)(N1CC[C@@H](O)C1)CC3` (single isomer, unassigned) [Compound 5-40], for which the Papp in data set [1] (pH 5) was 52.2 ×10⁻⁶ cm/s; in data set [1] (pH 7.4), 6 ×10⁻⁶ cm/s. Moreover, the IC50 in the data set with Jeko-1 (Homo sapiens, JeKo-1, Table 1) amounted to 10 nM; in the data set with MDA-MB-468 (Homo sapiens, MDA-MB-468), 69.1 nM. Moreover, the figures for the CLint scaled in data set [2] and in data set [3] were 102 mL/min/kg and 238 mL/min/kg, respectively. In addition, the half-life was determined as 38 min in data set [2] and 5.2 min in data set [3].
With `CC[C@@]1(O)C(=O)OCc2c1cc1n(c2=O)Cc2c-1nc1cc(F)c(C)c3c1c2[C@H](CO)CC3` (single isomer, unassigned) [Compound 1-16], the Papp turned out to be 40.4 ×10⁻⁶ cm/s in data set [1] (pH 5) and 8.5 ×10⁻⁶ cm/s in data set [1] (pH 7.4). Also, the IC50 in the data set on Jeko-1 (Homo sapiens, JeKo-1, Table 1) is 0.79 nM; with MDA-MB-468 (Homo sapiens, MDA-MB-468) it was 7.2 nM. In addition, the CLint scaled in data set [2] came out at 33 mL/min/kg; in data set [3], 44 mL/min/kg. The half-life in data set [2] was found to be 117 min; in data set [3] it was 28 min.
Take `CC[C@@]1(O)C(=O)OCc2c1cc1n(c2=O)Cc2c-1nc1cc(F)c(C)c3c1c2[C@@H](CO)CC3` (single isomer, unassigned) [Compound 1-17]: the values for the Papp in data set [1] (pH 5) and in data set [1] (pH 7.4) were 74.7 ×10⁻⁶ cm/s and 7.8 ×10⁻⁶ cm/s, respectively. In addition, the IC50 with Jeko-1 (Homo sapiens, JeKo-1, Table 1) worked out at 1 nM; with MDA-MB-468 (Homo sapiens, MDA-MB-468), 7.7 nM. Also, the values for the CLint scaled in data set [2] and in data set [3] were 17.9 mL/min/kg and 53.2 mL/min/kg, respectively. Besides, the half-life was 215 min in data set [2] and 23.5 min in data set [3].
Turning to `CC[C@@]1(O)C(=O)OCc2c1cc1n(c2=O)Cc2c-1nc1cc(F)c(C)c3c1c2[C@@H](NC(=O)CO)CC3` [Dxd, reference compound], the figures for the IC50 with Jeko-1 (Table 1), in the data set on Jeko-1 (Table 2) and in the data set with MDA-MB-468 were 1.42 nM, 0.52 nM and 11.6 nM, respectively. Further, the “HHEP (T1/2)” value in data set [2] (Table 1, human hepatocytes) was “(217) min”. In addition, in data set [2] (Table 1, human hepatocytes intrinsic clearance), the “HHEP Cl” value worked out at 17.8 mL/min/kg. Also, in data set [2] (Table 2, one value per cell), the “HHEP Cl (T1/2)” value is above 217. Besides, in data set [3] (Table 1, human liver microsome clearance), the “HLM Cl” value was 8.6 mL/min/kg. Also, the “HLM (T1/2)” value in data set [3] (Table 1, human liver microsomes) is on record as “(>145)”. In data set [3] (Table 2, one value per cell), the “HLM Cl (T1/2)” value amounted to 52.2.
